The numbers were not newly measured in publication PMC3910343 (Nephrology Dialysis Transplantation, 2013), which cites them from elsewhere.

The conditions of the data set: oral cinacalcet.

Molecules are shown by their SMILES.

Consider `C[C@@H](NCCCc1cccc(C(F)(F)F)c1)c1cccc2ccccc12` [cinacalcet], for which the initial half-life is reported as around 6 h and the “time to steady state” value is at most 7 days.
